Bounds are passed on as bounds.

Test [1] deals with T1, Phosphatidylinositol 4,5-bisphosphate 3-kinase catalytic subunit delta isoform (Mus musculus, UniProt O35904).
T1 sequence (O35904 whole entry): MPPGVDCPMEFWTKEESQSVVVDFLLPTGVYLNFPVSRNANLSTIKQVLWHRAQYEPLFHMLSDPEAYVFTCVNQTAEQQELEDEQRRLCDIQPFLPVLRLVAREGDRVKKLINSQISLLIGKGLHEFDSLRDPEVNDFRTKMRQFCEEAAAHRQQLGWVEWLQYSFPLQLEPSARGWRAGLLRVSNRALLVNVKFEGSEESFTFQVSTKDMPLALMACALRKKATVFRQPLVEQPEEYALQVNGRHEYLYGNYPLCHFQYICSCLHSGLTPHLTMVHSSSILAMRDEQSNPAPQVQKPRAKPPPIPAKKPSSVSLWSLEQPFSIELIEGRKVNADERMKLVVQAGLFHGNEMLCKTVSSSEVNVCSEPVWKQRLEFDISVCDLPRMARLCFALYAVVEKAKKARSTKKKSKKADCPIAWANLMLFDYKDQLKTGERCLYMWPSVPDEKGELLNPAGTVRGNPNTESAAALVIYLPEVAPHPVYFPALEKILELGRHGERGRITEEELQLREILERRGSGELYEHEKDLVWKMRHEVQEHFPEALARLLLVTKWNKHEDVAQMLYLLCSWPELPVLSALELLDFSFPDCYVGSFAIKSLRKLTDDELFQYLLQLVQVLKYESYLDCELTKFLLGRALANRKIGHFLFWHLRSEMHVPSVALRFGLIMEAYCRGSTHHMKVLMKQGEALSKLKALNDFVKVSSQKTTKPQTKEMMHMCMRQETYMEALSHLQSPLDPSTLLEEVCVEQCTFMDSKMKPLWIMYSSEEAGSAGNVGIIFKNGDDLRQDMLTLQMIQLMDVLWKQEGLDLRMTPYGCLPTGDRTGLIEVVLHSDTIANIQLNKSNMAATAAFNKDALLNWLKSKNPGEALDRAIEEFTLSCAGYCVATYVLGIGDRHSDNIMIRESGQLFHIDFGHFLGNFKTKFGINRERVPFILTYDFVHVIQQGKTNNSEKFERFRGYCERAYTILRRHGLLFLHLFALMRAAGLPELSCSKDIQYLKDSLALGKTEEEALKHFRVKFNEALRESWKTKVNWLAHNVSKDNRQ
The test can be described thus: Inhibition of PI3Kdelta-mediated AKT phosphorylation in mouse Raw 264.7 cells by immunoassay. The class given is cell-based.

For test [2], the target named is T2, Phosphatidylinositol 4,5-bisphosphate 3-kinase catalytic subunit delta isoform (Homo sapiens, UniProt O00329).
T2 sequence (O00329 whole entry): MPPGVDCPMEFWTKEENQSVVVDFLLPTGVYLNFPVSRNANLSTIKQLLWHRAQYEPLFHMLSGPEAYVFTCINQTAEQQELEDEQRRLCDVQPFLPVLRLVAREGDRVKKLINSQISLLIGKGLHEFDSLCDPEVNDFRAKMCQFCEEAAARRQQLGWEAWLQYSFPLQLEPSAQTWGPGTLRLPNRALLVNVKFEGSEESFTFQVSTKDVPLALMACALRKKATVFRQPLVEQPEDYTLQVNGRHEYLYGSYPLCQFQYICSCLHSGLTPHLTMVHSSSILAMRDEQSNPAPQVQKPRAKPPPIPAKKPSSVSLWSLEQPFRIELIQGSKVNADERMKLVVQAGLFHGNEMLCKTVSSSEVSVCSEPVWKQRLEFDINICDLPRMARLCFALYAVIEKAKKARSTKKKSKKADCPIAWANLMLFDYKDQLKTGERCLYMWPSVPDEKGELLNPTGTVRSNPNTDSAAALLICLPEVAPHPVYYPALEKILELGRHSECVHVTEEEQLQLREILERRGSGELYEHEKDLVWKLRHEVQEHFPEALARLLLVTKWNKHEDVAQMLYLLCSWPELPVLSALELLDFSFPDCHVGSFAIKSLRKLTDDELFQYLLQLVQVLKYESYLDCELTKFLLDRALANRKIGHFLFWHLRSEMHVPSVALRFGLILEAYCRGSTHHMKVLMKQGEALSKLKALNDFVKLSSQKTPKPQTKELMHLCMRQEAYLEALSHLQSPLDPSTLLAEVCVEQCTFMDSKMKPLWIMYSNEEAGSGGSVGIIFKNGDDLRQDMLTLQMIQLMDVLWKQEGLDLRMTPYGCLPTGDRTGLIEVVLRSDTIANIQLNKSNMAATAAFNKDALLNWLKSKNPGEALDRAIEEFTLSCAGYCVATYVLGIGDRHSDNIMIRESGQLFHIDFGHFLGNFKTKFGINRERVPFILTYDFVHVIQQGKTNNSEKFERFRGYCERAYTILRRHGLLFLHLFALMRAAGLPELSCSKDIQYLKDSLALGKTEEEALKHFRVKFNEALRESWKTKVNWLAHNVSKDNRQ
The settings on record: read-out: IC50.

Test [3] concerns the target T2, Phosphatidylinositol 4,5-bisphosphate 3-kinase catalytic subunit delta isoform. The experiment in a line: Inhibition of PI3Kdelta in human PBMC assessed as inhibition of anti-IgM-induced AKT phosphorylation by FACS analysis.
Test [4] has as its system Rattus norvegicus. The experiment in a line: Antiinflammatory activity in rat assessed as inhibition of Streptococcal cell wall-induced rat paw edema. To be noted: read-out: ID50 (the source's name). The class given is functional.
In test [5] the test system is Rattus norvegicus. The test can be described thus: Antiinflammatory activity in rat assessed as inhibition of Streptococcal cell wall-induced rat paw edema at 30 mg/kg. It counts as functional.
In test [6] the target is T2, Phosphatidylinositol 4,5-bisphosphate 3-kinase catalytic subunit delta isoform. The experiment in a line: Inhibition of PI3Kdelta assessed as inhibition of H2O2-induced AKT phosphorylation by cell-based assay.
Test [7] concerns Mus musculus. The test can be described thus: Antiinflammatory activity in ovalbumin-sensitized mouse asthma model assessed as reduction in lung eosinophils at 0.4 % administered as aerosolized formulation for 12 to 14 days. The class given is functional. Details: scale not given: the % may be the effect or the level left.
The subject of test [8] is Mus musculus. The test can be described thus: Antiinflammatory activity in ovalbumin-sensitized mouse asthma model assessed as reduction in airway-hyper responsiveness at 0.4 % administered as aerosolized formulation for 12 to 14 days. The class given is functional. Details: scale not given: the % may be the effect or the level left.
The next test has as its system Sus scrofa. The experiment in a line: Cardioprotective activity in pig MI model assessed as reduction in coronary artery occlusion at 0.5 mg/kg, iv administered as single bolus dose post 90 mins of reperfusion measured after 24 hrs. The class given is functional. Details: scale not given: the % may be the effect or the level left.
For test [9], the system named is Mus musculus. The test can be described thus: Antiinflammatory activity in LPS-induced COPD BALB/c mouse model assessed as reduction in pulmonary neutrophilia at 0.4 % administered as aerosolized formulation. Details: scale not given: the % may be the effect or the level left. It counts as functional.
Test [10] relates to Rattus norvegicus. The experiment in a line: Cardioprotective activity in Sprague-Dawley rat MI model assessed as reduction in coronary artery occlusion at 0.05 to 5 mg/kg, iv administered as single bolus dose post 60 mins of reperfusion measured after 24 hrs. The class given is functional. Details: scale not given: the % may be the effect or the level left. The settings on record: dose mg/kg 0.05-5.

In test [11] the test system is Mus musculus. The experiment in a line: Antiinflammatory activity in cigarette smoking-induced COPD BALB/c mouse model assessed as reduction in pulmonary neutrophilia at 0.4 % administered as aerosolized formulation. Details: scale not given: the % may be the effect or the level left. The class given is functional.
Test [12] has as its system Rattus norvegicus. The test can be described thus: Antiinflammatory activity in Sprague-Dawley rat assessed as reduction in PAF/dextran-induced hind paw edema at 5 mg/kg. Details: scale not given: the % may be the effect or the level left. The class given is functional.
For test [13], the target named is T2, Phosphatidylinositol 4,5-bisphosphate 3-kinase catalytic subunit delta isoform. The experiment in a line: Inhibition of PI3Kdelta using phosphatidylinositol as substrate by gamma33P[ATP] incorporation assay.
The species entered for test [14] is Mus musculus. The experiment in a line: Antiarthritic activity in adjuvant-induced rheumatoid arthritis mouse model assessed as reduction in disease clinical score. It counts as functional. Details: scale not given: the % may be the effect or the level left.

As usually defined, the IC50 is the point on the concentration scale where inhibition reaches its midpoint. `O=C1NC(=O)/C(=C/c2ccc3ncnc(N4CCC(C(F)(F)F)CC4)c3n2)S1`: the half-inhibitory concentration (IC50) was less than 10 nM in [1] and 6 nM in test [2].

Turning to `COc1cc(Nc2nc3ccccc3nc2NS(=O)(=O)c2ccc(CN(C)C)cc2)cc(OC)c1`, the IC50 in test [3] was found to be 16 nM.

Broadly, the inhibition in vivo is the share of the control response that was lost under treatment. As for `O=C(Nc1nn[nH]n1)c1cnc(N2CCOCC2)nc1OC1CCCCCC1`, the ED50 with Rattus norvegicus [4] came out at 16.3 mg/kg. The inhibition in vivo at 30 mg/kg in the test on Rattus norvegicus [5] is 52%. For the same compound, in test [2], the IC50 worked out at 197 nM.

`C#Cc1cccc2nc(Cn3nc(-c4cccc(O)c4)c4c(N)ncnc43)n(Cc3cccc(OC)c3)c(=O)c12`: in [6], the IC50 was 570 nM.

For `Nc1nc(N)c2nc(-c3cccc(O)c3)c(-c3cccc(O)c3)nc2n1` [TG100-115], the Activity in the test on Mus musculus [7] was 79%; in the test on Mus musculus [8], 50%; in the test on Sus scrofa, 35%; in the test on Mus musculus [9], 42%; with Rattus norvegicus [10], “>=40%”; in the test on Mus musculus [11], “>=81%”. The Activity entry in the test with Rattus norvegicus [12] is “>=62%”.

Consider `O=c1cc(N2CCOCC2)oc2c(-c3ccccc3)cccc12` [LY-294002], for which the IC50 in test [13] is 1050 nM.

`O=C1NC(=O)/C(=C/c2ccc3nccnc3c2)S1`: the Activity in the test filed under Mus musculus [14] came to 40%.

These data come from ChEMBL document CHEMBL2216751, “PI3Kδ and PI3Kγ as targets for autoimmune and inflammatory diseases” (J Med Chem, 2012).
